Source: patent publication US7795208B2, “Methods of using deacetylase inhibitors to promote cell differentiation and regeneration” (The Salk Institute for Biological Study, priority 2001, dated 2010)
Values joined by “and” are separate entries in the source; they are usually repeats but may differ in a detail not shown here. Identical values can stand only once. “Also recorded” adds a separate entry of the source.

Legend:
mouse embryos = test: Embryos of pregnant MLC1/3F-nLacZ mice exposed in utero (somitogenesis, muscle gene expression); assay type: in vivo
Experimental: MLC1/3F-nLacZ pregnant mice (E 8.5) received intra peritoneal injection of 15 μg of TSA (WAKO chemicals, Neuss Germany) or VPA (Sigma) at E 8.5 and E 9.5 as described in Faiella, A., et al., Hum Mol Genet 9:227-36 (2000), and Nervi, C., et al., Cancer Res 61:1247-9 (2001). VPA was dissolved in distilled water and administered at doses of 6 mg/mice (about 150 μg/ml) every 12 h at E 8.5, E 9, E 9.5, E 10 as described in Faiella et al. (2000). […] Mice were sacrificed at E 10.5, and the embryos were observed under a dissecting stereo-microscope to evaluate their viability, presence of external malformations, and number of somites. Embryos were fixed in 4% paraformaldehyde for histology and X-Gal staining or immunocytochemistry using antibodies against MyoD and myosin heavy chains as described in Tajbakhsh, S., et al., Neuron 13:813-21 (1994).
DI was administered intraperitoneally to pregnant mice (at a concentration of 0.5 to 1 mg/Kg for TSA and 200 mg/Kg for VPA) at post-implantation stages of E 8.5, and the pregnant mice were sacrificed at 10.5, when MyoD expression is clearly detectable in the myotomes. […] In Table 2, Somites of MLC1/3F-nLacZ mice (injected at day 8.5 and sacrificed at day 10.5) were scored after staining the embryos to detect β-galactosidase activity.

[1] = tested on: 4RE-luc, MEF2-luc, MCK-luc; test: Luciferase assay of transiently transfected myogenic reporters in skeletal myoblasts; assay type: cell-based, mouse
Experimental: Mouse muscle myoblast C2C12 cells (obtained from the American Type Culture Collection, ATCC CRL-1772) and CC42 cells (from Dr. Kenneth Walsh, Tufts University School of Medicine) were cultured in DMEM supplemented with 20% fetal bovine serum, 2 mM glutamine and 1× kanamycin (growth medium, GM). Cellular differentiation was induced with DMEM supplemented with 2% horse serum and 1× insulin, transferring, selenium (Life Technologies). Human skeletal myocytes (CC-2561) were purchased from Clonetics. Stable C2C12 cell lines with integrated reporters are described in Wu, Z., et al., Mol Cell Biol 20:3951-64 (2000). The MCK-luc, 4RE-luc, MEF2 reporter constructs have been described in Puri, P. L., et al., EMBO Journal 16:369-83 (1997a) and Sartorelli, V., et al., Molecular & Cellular Biology 17:1010-26 (1997). The E2F-luc plasmid is described in Helin, K., et al., Genes Dev 7:1850-61 (1993). The MLC-lacZ-nls plasmid is described in Wu, et al. (2000). […] Following transfections, luciferase activity was determined using the Dual-Luciferase reporter assay system (Promega) on a microtiter luminescence detection system (MLX, Dynex).
C2C12 and CC42 cells were exposed to sodium butyrate 5 mM (Sigma), trichostatin A 50 nM (Upstate Biotechnologies), or valproic acid 10 mM (Sigma) for 24 hours in GM (GM regimen). TSA was removed and the cells cultured in DM for 48 hrs before being analyzed. […]

MyoD = test: In vivo acetylation assay (3H-acetate incorporation); assay type: cell-based, mouse; details: myoblasts cultured in GM
Experimental: In FIG. 3A, MyoD acetylation in undifferentiated C2C12 myoblasts (GM) untreated (−) or treated with either sodium butyrate (Butyr.) or TSA and in differentiated myotubes (abbrev. DM in FIG. 3A, but not to be confused with the abbreviation for “differentiation medium” as used elsewhere herein) was measured by ^3H incorporation of exogenously transfected Flag-tagged MyoD following metabolic labeling with ^3H sodium acetate as described in Sartorelli, V., et al., Molecular Cell 4:725-34 (1999). […] Chromatin was immunoprecipitated with antibodies against acetyl-histone 4 (AcH4) or IgG (as a control). Purified DNA from anti-AcH4 immunoprecipitated chromatin was analyzed by PCR using primers recognizing GAPDH promoter and MCK enhancer as described in Example 1. Unbound DNA (lanes 2 and 3, top panel) is an aliquot of chromatin not immunoprecipitated by anti-AcH4 antibody and amplified with GAPDH primers. Input (lanes 2 and 3, bottom panel) is an aliquot (1%) of the chromatin analyzed before the immunoprecipitation to quantify the amount of DNA present in different samples. […] Myoblasts were then formaldehyde cross-linked and processed.
In vivo acetylation assay was performed as described in Sartorelli, V., et al., Molecular Cell 4:725-34 (1999).
The acetylation of MyoD by ^3H-acetate incorporation in myoblasts, cultured in either the absence or presence of TSA, was evaluated. […]

[2] = tested on: histones of the MCK enhancer; test: Chromatin immunoprecipitation with anti-acetyl-histone H4; assay type: cell-based, mouse; details: myoblasts exposed to TSA in GM 16 hours, then DM 24 hours
Experimental: In FIG. 3A, MyoD acetylation in undifferentiated C2C12 myoblasts (GM) untreated (−) or treated with either sodium butyrate (Butyr.) or TSA and in differentiated myotubes (abbrev. DM in FIG. 3A, but not to be confused with the abbreviation for “differentiation medium” as used elsewhere herein) was measured by ^3H incorporation of exogenously transfected Flag-tagged MyoD following metabolic labeling with ^3H sodium acetate as described in Sartorelli, V., et al., Molecular Cell 4:725-34 (1999). […] Chromatin was immunoprecipitated with antibodies against acetyl-histone 4 (AcH4) or IgG (as a control). Purified DNA from anti-AcH4 immunoprecipitated chromatin was analyzed by PCR using primers recognizing GAPDH promoter and MCK enhancer as described in Example 1. Unbound DNA (lanes 2 and 3, top panel) is an aliquot of chromatin not immunoprecipitated by anti-AcH4 antibody and amplified with GAPDH primers. Input (lanes 2 and 3, bottom panel) is an aliquot (1%) of the chromatin analyzed before the immunoprecipitation to quantify the amount of DNA present in different samples. […] Myoblasts were then formaldehyde cross-linked and processed. […]
The MCK primers amplify nucleotides −1229 to −1007 of the MCK enhancer, while the GAPDH primers amplify nucleotides −1030 to −721. The PCR products were analyzed on 6% non-denaturing polyacrylamide gels. […]

4RE-luc and MCK-luc = test: Chromatin-integrated muscle-specific reporters in stable C2C12 clones; assay type: cell-based, mouse; details: TSA in GM (presence of serum), 48 hours
Experimental: FIGS. 2A-D are graphs showing DI activation muscle-specific transcription in skeletal muscle cells. […] Luciferase activity was measured in non-treated cells cultured in either GM (GM) or DM (DM). Alternatively, C2C12 were exposed to sodium butyrate for 24 hours in GM and then switched to DM without sodium butyrate (Butyr/GM>DM) or treated with sodium butyrate when cultured in DM (Butyr/DM) before being analyzed for luciferase activity. […] Luciferase assays were performed after culturing the cells for 48 hours in DM without sodium butyrate. […] The reporter activity was also analyzed in cells differentiated in the absence of TSA (DM)
Mouse muscle myoblast C2C12 cells (obtained from the American Type Culture Collection, ATCC CRL-1772) and CC42 cells (from Dr. Kenneth Walsh, Tufts University School of Medicine) were cultured in DMEM supplemented with 20% fetal bovine serum, 2 mM glutamine and 1× kanamycin (growth medium, GM). Cellular differentiation was induced with DMEM supplemented with 2% horse serum and 1× insulin, transferring, selenium (Life Technologies). Human skeletal myocytes (CC-2561) were purchased from Clonetics. […] Following transfections, luciferase activity was determined using the Dual-Luciferase reporter assay system (Promega) on a microtiter luminescence detection system (MLX, Dynex). […]

[3] = i.p. to pregnant mice at E 8.5, sacrificed at 10.5, 0.5 to 1 mg/Kg TSA, 200 mg/Kg VPA
[4] = treated at E 8.5, sacrificed at E 9.5

CC(/C=C/C(=O)NO)=C\[C@@H](C)C(=O)c1ccc(N(C)C)cc1 [TSA, trichostatin A]
level of MLC-lacZ transgene expression (mouse embryos; E 10.5 embryos, vs control embryos): higher level of MLC-lacZ transgene expression
# somites (β-galactosidase staining) (mouse embryos; MLC1/3F-nLacZ mice injected at day 8.5, sacrificed at day 10.5, TSA [1 mg/ml] (20 ul + 380 ul PBS), VPA 155 mM, one value per embryo, PBS controls 25-32): 32 and 37 and 34 and 36 and 33
Notch transcripts (mouse embryos; animals exposed to a DI): increased
levels of MHC in exposed embryos (Western blot) (mouse embryos; extracts of total embryos): augmented the levels of MHC
number of MLC expressing somites (mouse embryos; [3]): consistently increased
number of MyoD expressing myotomes (mouse embryos; [3]): consistently increased
acetylation of histone H4 in embryos (mouse embryos; [4]): increased acetylation of histone H4
embryo size vs control embryos (mouse embryos; [4]): modestly and consistently larger than control embryos
increase in number of somites vs control embryos (mouse embryos; [4]): +2 to +6
number of somites expressing Myf-5 (mouse embryos; [4]): increased
HDAC1-mediated inhibition of 4RE-luc ([1]; HDAC1 expression vector co-transfected): could be reversed
transcription of transiently transfected myogenic reporter constructs ([1]; treatment in GM or in DM): stimulates transcription of the reporter constructs only when the DI inhibitors are applied to the cells cultured in GM; also recorded: activation of a transfected MCK-luc reporter
incorporation of 3H-acetate into transfected MyoD (MyoD): stimulated the incorporation
histone H4 acetylation of the MCK enhancer (ChIP) [2]: histone hyperacetylation of the MCK enhancer
activation of integrated 4RE-luc and MCK-luc templates (4RE-luc and MCK-luc): two-to-three
